Details of the data set: AUC for Cimetidine / AUC for Ranitidine: unit not given beside the values. The note with it: in vivo.

Each structure is given as a SMILES string.

For the molecule `CN/C(=N/CCSCc1nc[nH]c1C)NC#N` [cimetidine], the “AUC for Cimetidine” value is reported as 54.3 and the “dissolved drug not absorbed from the GI tract into the blood stream” value (shortened to “dissolved drug not absorbed”) was 15-20%.

With `NC(N)=Nc1nc(CSCCC(N)=NS(N)(=O)=O)cs1` [famotidine], the “dissolved drug not absorbed” value is 15-20%.

Regarding `CNC(=C[N+](=O)[O-])NCCSCc1ccc(CN(C)C)o1` [ranitidine], the “AUC for Ranitidine” value came out at 55.2 and the “dissolved drug not absorbed” value is 15-20%.
